Among the data in US20190389865A1, “SUBSTITUTED PYRROLO[1,2-a]TRIAZINES AND RELATED COMPOUNDS AND THEIR USE IN THE TREATMENT OF MEDICAL DISORDERS” (Lysosomal Therapeutics Inc., priority 2016, published 2019) are solubility and activation values, retold here.

Values after ≈ are worked out from the molar mass of the structure shown.

The nature of data set [1]: Compound solubility in water. It is filed as physicochemical.
Data set [2] concerns the target T1, glucocerebrosidase (Gcase) (Homo sapiens, UniProt P04062).
T1 sequence (P04062 40-536): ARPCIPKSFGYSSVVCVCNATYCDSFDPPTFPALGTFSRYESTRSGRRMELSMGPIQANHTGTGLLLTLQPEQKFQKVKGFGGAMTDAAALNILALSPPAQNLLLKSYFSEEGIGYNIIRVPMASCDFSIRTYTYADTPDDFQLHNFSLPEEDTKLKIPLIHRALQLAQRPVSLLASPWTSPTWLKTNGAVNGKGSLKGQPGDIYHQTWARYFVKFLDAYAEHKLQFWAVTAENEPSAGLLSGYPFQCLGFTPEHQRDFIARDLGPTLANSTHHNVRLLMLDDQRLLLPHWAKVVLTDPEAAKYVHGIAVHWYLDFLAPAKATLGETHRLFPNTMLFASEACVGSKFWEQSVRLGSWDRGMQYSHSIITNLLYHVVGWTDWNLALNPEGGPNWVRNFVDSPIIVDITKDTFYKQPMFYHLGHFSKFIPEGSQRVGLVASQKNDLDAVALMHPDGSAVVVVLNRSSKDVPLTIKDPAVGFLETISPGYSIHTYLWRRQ
In words: Glucocerebrosidase (Gcase) activation assay, 4-methylumbelliferyl-beta-D-glucopyranoside substrate, fluorescence. The note with it: 10 nM GCase, 100 nM saposin C, pH 4.7; for activation at 0.1 µM: 0.1 μM test compound, read-out: Percent Gcase Activation, 0.1 μM Test Compound; for activation at 1 µM: 1 μM test compound, read-out: Percent Gcase Activation, 1 μM Test Compound. Format: biochemical. The protocol:
The ability of exemplary compounds to activate glucocerebrosidase (Gcase) was measured.
A 484 μL aliquot of a 1.0 mg/mL solution of phosphatidylserine (PS) (Sigma P7769) in chloroform was evaporated under a stream of nitrogen for 1 hour. The lipid film was dissolved over 4 minutes of vigorous vortexing in 40 mL of 176 mM K2HPO4/50 mM citric acid (pH 4.7) containing 7.5 μL of triton X-100, resulting in a mixed micellar preparation with a composition of 0.32 mM triton and 0.37 mol % PS. 4-Methylumbelliferyl-beta-D-glucopyranoside (ACROS-337025000) was dissolved in the micellar solution to a final concentration of 2 mM for use as the reaction substrate.
Test compounds were diluted to the desired concentrations with dimethylsulfoxide (DMSO) from 10 mM stocks, and 0.41 μL of the DMSO compound mixture was added to 100 μL of micellar solution containing 10 nM GCase and 100 nM saposin C (Enzo ALX-201-262-C050). Pre-incubation was allowed to occur for 30 minutes at room temperature, after which the reaction was initiated by combining 25 μL of substrate solution with 25 μL of compound/GCase/saposin mixture. The reaction proceeded for 15 minutes at room temperature and was stopped by adding 150 μL of 1M glycine, pH 12.5. The endpoint of the reaction was monitored by measuring fluorescence intensity (excitation: 365 nm; emission: 440 nm) on a SpectraMax i3 instrument (Molecular Devices). […]

In the case of `Cc1nc(C)c2cccc(C(=O)NC3CCCc4ccccc43)c2n1` (stereo not drawn) [2,4-Dimethyl-N-(1,2,3,4-tetrahydronaphthalen-1-yl)quinazoline-8-carboxamide], the solubility in data set [1] turned out to be 5 µg/mL (≈ 15.1 µM). Also, in data set [2], the activation at 0.1 µM was less than 5% and the activation at 1 µM lay within 5 to 20%.

Take `Cc1nc(C)n2ccc(C(=O)NC3(C)CCCc4ccccc43)c2n1` (stereo not drawn) [2,4-Dimethyl-N-(1-methyl-1,2,3,4-tetrahydronaphthalen-1-yl)pyrrolo[1,2-a][1,3,5]triazine-8-carboxamide]: in data set [1], the concentration in solution (solubility) came to 5.1 µg/mL (≈ 15.3 µM). Further, in data set [2], the activation at 0.1 µM fell in the range of 5 to 20% and the activation at 1 µM was more than 20%.

`CCC(NC(=O)c1ccn2c(C)nc(C)nc12)c1ccccc1` (stereo not drawn) [2,4-Dimethyl-N-(1-phenylpropyl)pyrrolo[1,2-a][1,3,5]triazine-8-carboxamide] yielded a solubility in data set [1] of 17.4 µg/mL (≈ 56.4 µM). Moreover, in data set [2], the activation at 0.1 µM lay in the range of 5 to 20% and the activation at 1 µM is more than 20%.

In data set [1], `CCC(NC(=O)c1cccc2c(C)nc(C)nc12)c1ccccc1` (stereo not drawn) [2,4-Dimethyl-N-(1-phenylpropyl)quinazoline-8-carboxamide] gave a solubility of 8.7 µg/mL (≈ 27.2 µM). In addition, in data set [2], the activation at 0.1 µM was less than 5% and the activation at 1 µM fell in the range of 5 to 20%.

`CCCCCO[C@H]1CC[C@H](NC(=O)c2cccc3c(C)nc(C)nc23)CC1` [2,4-Dimethyl-N-((1R,4R)-4-(pentyloxy)cyclohexyl)quinazoline-8-carboxamide] gave a solubility in data set [1] of 7.6 µg/mL (≈ 20.6 µM). In data set [2], the activation at 0.1 µM is less than 5% and the activation at 1 µM lay within 5 to 20%.

For `CCCCCO[C@H]1CC[C@H](NC(=O)c2ccn3c(C)nc(C)nc23)CC1` [2,4-Dimethyl-N-((1S,4S)-4-(pentyloxy)cyclohexyl) pyrrolo[1,2-a][1,3,5]triazine-8-carboxamide], the concentration in solution in data set [1] (solubility) came to 12.5 µg/mL (≈ 35 µM). Besides, in data set [2], the activation at 0.1 µM fell in the range of 5 to 20% and the activation at 1 µM was more than 20%.

In data set [1], `Cc1nc(-c2cccc(C(N)=O)c2)nc2c(C(=O)NC(C3CC3)C(F)(F)F)ccn12` (stereo not drawn) [2-(3-Carbamoylphenyl)-N-(1-cyclopropyl-2,2,2-trifluoroethyl)-4-methylpyrrolo[1,2-a][1,3,5]triazine-8-carboxamide] displayed a solubility of 1.9 µg/mL (≈ 4.55 µM). Further, in data set [2], the activation at 0.1 µM was more than 20% and the activation at 1 µM was more than 20%.

Turning to `Cc1nc(-c2cccc(C#N)c2)nc2c(C(=O)NC(C3CC3)C(F)(F)F)ccn12` (stereo not drawn) [2-(3-Cyanophenyl)-N-(1-cyclopropyl-2,2,2-trifluoroethyl)-4-methylpyrrolo[1,2-a][1,3,5]triazine-8-carboxamide], in data set [1], the solubility stood at 0.6 µg/mL (≈ 1.5 µM). Besides, in data set [2], the activation at 0.1 µM is more than 20% and the activation at 1 µM was more than 20%.

Turning to `COc1cc(-c2nc(C)n3ccc(C(=O)NC(C)C(F)(F)F)c3n2)ccc1F` (stereo not drawn) [2-(4-Fluoro-3-methoxyphenyl)-4-methyl-N-(1,1,1-trifluoropropan-2-yl)pyrrolo[1,2-a][1,3,5]triazine-8-carboxamide], the solubility in data set [1] worked out at 1 µg/mL (≈ 2.52 µM). In data set [2], the activation at 0.1 µM was more than 20% and the activation at 1 µM is more than 20%.

In the case of `Cc1nc(C)n2ccc(C(=O)NC(C3CC3)C(F)(F)F)c2n1` (stereo not drawn) [N-(1-Cyclopropyl-2,2,2-trifluoroethyl)-2,4-dimethylpyrrolo[1,2-a][1,3,5]triazine-8-carboxamide], in data set [1], the concentration in solution (solubility) came to 28.2 µg/mL (≈ 90.3 µM). For the same compound, in data set [2], the activation at 0.1 µM was in the range of 5 to 20% and the activation at 1 µM was more than 20%.

`Cc1nc(-c2cccc(F)c2)nc2c(C(=O)NC(C3CC3)C(F)(F)F)ccn12` (stereo not drawn) [N-(1-Cyclopropyl-2,2,2-trifluoroethyl)-2-(3-fluorophenyl)-4-methylpyrrolo[1,2-a][1,3,5]triazine-8-carboxamide] had a solubility in data set [1] of 0.2 µg/mL (≈ 0.51 µM). Moreover, in data set [2], the activation at 0.1 µM is more than 20% and the activation at 1 µM is more than 20%.

Compound `Cc1nc(-c2ccc(F)cc2)nc2c(C(=O)NC(C3CC3)C(F)(F)F)ccn12` (stereo not drawn) [N-(1-Cyclopropyl-2,2,2-trifluoroethyl)-2-(4-fluorophenyl)-4-methylpyrrolo[1,2-a][1,3,5]triazine-8-carboxamide] registered a solubility in data set [1] of 0.1 µg/mL (≈ 0.255 µM). Also, in data set [2], the activation at 0.1 µM is more than 20% and the activation at 1 µM was more than 20%.

As for `Cc1nc(C)n2ccc(C(=O)Nc3ccc4c(c3)CCC4)c2n1` [N-(2,3-Dihydro-1H-inden-5-yl)-2,4-dimethylpyrrolo[1,2-a][1,3,5]triazine-8-carboxamide], the solubility in data set [1] worked out at 1.2 µg/mL (≈ 3.92 µM). Moreover, in data set [2], the activation at 0.1 µM was less than 5% and the activation at 1 µM is more than 20%.

Regarding `Cc1nc(C)c2cccc(C(=O)Nc3ccc4c(c3)CCC4)c2n1` [N-(2,3-Dihydro-1H-inden-5-yl)-2,4-dimethylquinazoline-8-carboxamide], the concentration in solution in data set [1] (solubility) was 0.5 µg/mL (≈ 1.58 µM). Further, in data set [2], the activation at 0.1 µM is less than 5% and the activation at 1 µM was in the range of 5 to 20%.

`Cc1nc(C)n2ccc(C(=O)NC(C)(C)C3CC3)c2n1` [N-(2-Cyclopropylpropan-2-yl)-2,4-dimethylpyrrolo[2-a][1,3,5]triazine-8-carboxamide] returned a solubility in data set [1] of 38.4 µg/mL (≈ 141 µM). In data set [2], the activation at 0.1 µM was less than 5% and the activation at 1 µM lay within 5 to 20%.

Take `Cc1nc(-c2ccc(F)cc2)nc2c(C(=O)NC(C)(C)C3CC3)ccn12` [N-(2-Cyclopropylpropan-2-yl)-2-(4-fluorophenyl)-4-methylpyrrolo[1,2-a][1,3,5]triazine-8-carboxamide]: the concentration in solution in data set [1] (solubility) came to 0.5 µg/mL (≈ 1.42 µM). For the same compound, in data set [2], the activation at 0.1 µM was less than 5% and the activation at 1 µM is more than 20%.

For `C#Cc1ccc(NC(=O)c2ccn3c(C)nc(C)nc23)cc1` [N-(4-Ethynylphenyl)-2,4-dimethylpyrrolo[1,2-a][1,3,5]triazine-8-carboxamide], the concentration in solution in data set [1] (solubility) came to 1.8 µg/mL (≈ 6.2 µM). In addition, in data set [2], the activation at 0.1 µM is less than 5% and the activation at 1 µM is more than 20%.

For `C#Cc1ccc(NC(=O)c2cccc3c(C)nc(C)nc23)cc1` [N-(4-Ethynylphenyl)-2,4-dimethylquinazoline-8-carboxamide], the concentration in solution in data set [1] (solubility) came to 0.7 µg/mL (≈ 2.32 µM). Moreover, in data set [2], the activation at 0.1 µM is less than 5% and the activation at 1 µM was less than 5%.

As a reminder, the solubility is the dissolved amount per volume that the medium holds. A higher solubility goes with a readily soluble substance.
